Assay results: PubChem BioAssay (NCI)
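These data come from cells grown in 96-well plates and exposed to compound for 48 hours at five concentrations. Abbreviation: GI50, concentration required for 50% inhibition of growth. TGI is the concentration that stops growth completely.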

Legend:
Experiment in all cases: NCI tumour cell line growth inhibition, 48 h
MALME-3M melanoma = system: MALME-3M melanoma
UACC-257 melanoma = system: UACC-257 melanoma
OVCAR-4 ovarian = system: OVCAR-4 ovarian
IGROV1 ovarian = system: IGROV1 ovarian
HCT-15 colon = system: HCT-15 colon
PC-3 prostate = system: PC-3 prostate
SN12C renal = system: SN12C renal
ACHN renal = system: ACHN renal
HOP-92 NSCLC = system: HOP-92 NSCLC
UACC-62 melanoma = system: UACC-62 melanoma

Structure (SMILES)	TGI (MALME-3M melanoma) [µM]	TGI (UACC-257 melanoma) [µM]	TGI (OVCAR-4 ovarian) [µM]	TGI (IGROV1 ovarian) [µM]	TGI (HCT-15 colon) [µM]	TGI (PC-3 prostate) [µM]	TGI (SN12C renal) [µM]	TGI (ACHN renal) [µM]	TGI (HOP-92 NSCLC) [µM]	TGI (UACC-62 melanoma) [µM]	GI50 (MALME-3M melanoma) [µM]	GI50 (UACC-257 melanoma) [µM]	GI50 (OVCAR-4 ovarian) [µM]	GI50 (IGROV1 ovarian) [µM]	GI50 (HCT-15 colon) [µM]	GI50 (PC-3 prostate) [µM]	GI50 (SN12C renal) [µM]	GI50 (ACHN renal) [µM]	GI50 (HOP-92 NSCLC) [µM]	GI50 (UACC-62 melanoma) [µM]
Oc1ccc(O)c(CNc2ccccc2)c1	31.9	39.4	28.6	33.4	42.2	30	29.2	25.5	20.8	30.6										
CC(=O)O[C@H]1C[C@H]2C(=S)Nc3ccccc3C(=S)N2C1	> 100	> 100	> 100	> 100	> 100	> 100	> 100	> 100	> 100	> 100										
CC(=O)OCC1OC(O/C=C(\CN=[N+]=[N-])C(C)=O)C(OC(C)=O)C(OC(C)=O)C1OC(C)=O (stereo not given)	10.3	17.1	43.1	39.2	18.9	27.8	29.5	12.4	56.6	25.3										
COC(=O)[C@H](Cc1ccccc1)NP(=O)(O)OCC1C=CC(n2cc(C)c(=O)[nH]c2=O)O1 (stereo not given in full)	> 100	> 100	> 100	> 100	> 100	> 100	> 100	62.6	> 100	> 100										
CC1(C)CCC(=O)NC1CC(=O)CC1NC(=O)CCC1(C)C (stereo not given)	> 100	> 100	> 100	> 100	> 100	> 100	> 100	> 100	> 100	> 100										
CCOC(=O)Cn1c(=O)c2cc(-c3ccccc3)cc3c(Cl)nc4c(OC)c(OC)cc1c4c32	22	38.9	> 77.1	27.5	32.2	55.4	> 100	> 65.5	54.6	30.4										
CCCCCCCCCCCCCCCCCCOCC(COP(=O)([O-])OCC[N+](C)(C)C)OC (stereo not given)	46.8	30.5	> 52.6	18.7	11.3	57.2	34.6	> 100	25.4	47.1										
N#Cc1nc(CCC(c2nc(C#N)c(N)o2)N2C(=O)c3ccccc3C2=O)oc1N (stereo not given)	> 100	> 100	> 100	> 100	> 100	> 100	> 100	> 100	> 100	> 100										
N#Cc1ccc(Oc2nc3ccc(C(F)(F)F)cc3nc2-c2ccccc2)cc1	45.3	54.7	32.4	41.3	28.1	27	40.9	28.4	27.5	> 100										
c1ccc2nc(CCC3CCCCN3)ccc2c1 (stereo not given)	> 100	> 100	> 100	> 100	> 100	> 100	> 100	> 100	> 100	> 100										
C[C@]1(O)O[C@@H]2OCC[C@@H]2C2=C1C(=O)c1ccccc1C2=O	29.5	31	28.4	27.2	39.1	54.8	51.1	31.7	31	39.5										
Cc1ccc(S(=O)(=O)NC(=O)NC(Cc2ccc(O)c(O)c2)C(=O)O)cc1 (stereo not given)	> 100	> 100	> 100	> 100	> 100	> 100	> 100	> 100	> 100	> 100										
C=CCCCCCCCCCOC1C=CC(OC(C)=O)C(COC(C)=O)O1 (stereo not given)	> 100	95.8	> 100	> 100	> 100	> 100	> 100	> 100	> 100	> 100										
NC(=O)CC(N=C1C(=O)OC(C(O)CO)C1=NC(CC(N)=O)C(=O)O)C(=O)O (stereo not given)	> 100	> 100	> 100	> 100	> 100	> 100	> 100	> 100	> 100	> 100										
CC1CCc2sc3[nH]c(=S)n(-c4ccccc4)c(=O)c3c2C1 (stereo not given)	> 100	> 100	> 100	> 100	> 100	> 100	> 100	> 100	> 100	> 100										
COc1ccc2cc(C(=O)NCCCNC(=O)c3ccc4cc(OC)ccc4c3)ccc2c1	> 100	> 100	> 100	> 100	> 100	> 100	> 100	> 100	45.2	> 100										
COC(=O)c1cc(C(=CCC[C@H]2CC[C@@]3(C)C(CCC4C3CC[C@@]3(C)C4CC[C@@H]3C(C)CCCC(C)C)C2)c2cc(Cl)c(OC(=O)c3ccccc3)c(C(=O)OC)c2)cc(Cl)c1OC(=O)c1ccccc1 (stereo not given in full)	> 10	> 10	> 10	> 10	> 10	> 10	> 10	> 10	> 10	> 10										

Structure (SMILES)	TGI (MALME-3M melanoma) [µM]	TGI (UACC-257 melanoma) [µM]	TGI (OVCAR-4 ovarian) [µM]	TGI (IGROV1 ovarian) [µM]	TGI (HCT-15 colon) [µM]	TGI (PC-3 prostate) [µM]	TGI (SN12C renal) [µM]	TGI (ACHN renal) [µM]	TGI (HOP-92 NSCLC) [µM]	TGI (UACC-62 melanoma) [µM]	GI50 (MALME-3M melanoma) [µM]	GI50 (UACC-257 melanoma) [µM]	GI50 (OVCAR-4 ovarian) [µM]	GI50 (IGROV1 ovarian) [µM]	GI50 (HCT-15 colon) [µM]	GI50 (PC-3 prostate) [µM]	GI50 (SN12C renal) [µM]	GI50 (ACHN renal) [µM]	GI50 (HOP-92 NSCLC) [µM]	GI50 (UACC-62 melanoma) [µM]
C=C(C)[C@@H]1CCC2=C[C@H](CC(C)=CC3=CC(C)=C(O3)[C@@H]1OC)OC2=O	> 100	> 100	> 100	> 100	> 100	> 100	> 100	> 100	> 100	> 100										
Cc1ccc(S(=O)(=O)N2CCNCCN(S(=O)(=O)c3ccc(C)cc3)CCN(S(=O)(=O)c3ccc(C)cc3)CC2)cc1	> 100	> 100	> 100	> 100	> 100	> 100	> 100	> 100	> 100	> 100										
Cc1nnc(-n2c(O)cc(=O)n(-c3ccccc3)c2=S)nc1/C=C/c1ccc(N(C)C)cc1	8.38	> 55.8	> 58.1	34.2	13.5	> 46.2	> 96.1	> 49.5	> 71.9	> 46.8										
CCN1CCC(O)(c2ccc(Oc3ccc(C)cc3)cc2)C(C(=O)c2ccc(Oc3ccc(C)cc3)cc2)C1 (stereo not given)	29.7	26.7	17.3	25	15.2	24.5	30.7	25.9	21.7	24.5										
C=C(C(=O)OC)c1cc2ccccc2n1S(=O)(=O)c1ccccc1	5.72	18.7	11.3	4.21	5.37	9.51	8.18	5.89	3.34	15										
Oc1ccc(C#CCOc2ccccc2)cc1CNCCN(Cc1ccccn1)Cc1ccccn1	3.31	6.83	3.71	1.66	3.55	4.06	2.65	2.38	4.1	3.59	1.63	2.55	1.29	0.45	1.13	0.799	1.08	1.16	1.57	1.68
Cc1ccc(C(=O)Nc2ccc(S(=O)(=O)O)c3cc(S(=O)(=O)O)cc(S(=O)(=O)O)c23)cc1NC(=O)c1cccc(NC(=O)Nc2cccc(C(=O)Nc3cc(C(=O)Nc4ccc(S(=O)(=O)O)c5cc(S(=O)(=O)O)cc(S(=O)(=O)O)c45)ccc3C)c2)c1 (tested in a mixture with another compound)	> 50	> 50	> 50	> 50	> 50	> 50	> 50	> 50	> 50	> 50										
CC(=O)OCC1=C(C)C[C@H]([C@@H](COC(C)=O)C2CCC3C4C[C@H]5O[C@]56CC=CC(=O)[C@]6(C)C4CC[C@@]32C)OC1=O (stereo not given in full)	0.963	2.99	9.9	0.849	0.296	1.27	1.18	2.68	2.87	0.976										
Nc1ccc(Oc2ccc(C34CC5CC6C3CC3CC4C(C5)C6(c4ccc(Oc5ccc(N)c(O)c5)cc4)C3)cc2)cc1O	30.4	34.7	22.2	22.6	25	11.9	11.4	14.3	8.41	26.3										
Oc1cccc(-c2cn3cc(C(F)(F)F)ccc3n2)c1	> 100	65.3	> 100	> 100	> 100	> 100	> 100	> 100	> 100	> 100										
O=C(N/N=C\c1ccccc1)Nc1cccc2ccccc12	> 100	> 100	> 100	> 100	> 100	86.5	45.9	39	> 100	> 100										
COc1cc2c(cc1OC)-c1cc3cc(OC)c(OC)cc3c(=O)n1CC2	> 79.5	> 78.4	> 100	> 62.3	> 100	> 100	> 100	> 86	10.5	34.7										
Clc1nc(Cl)c(CBr)c(Cl)n1	28.7	33.9	19.7	14.1	7.91	17.7	6.79	15.7	5.07	11.4										
C#CC(O)/C=C/C(O)CCCC(O)CC#CC(O)C#CC(O)CCCC(O)/C=C/CCCC(=O)CCCCCCCCCCCCCCCC(O)C(O)C#CC(=O)O (stereo not given)	> 50	> 50	28.2	21.1	> 50	> 50	> 50	> 50	> 50	> 50										
Clc1ncc(Cl)c(Cl)n1	3.75	14.3	3.53	23.3	5.99	5.64	5.91	3.63	3.43	4.42										
N=c1c2c(=S)n(-c3ccccc3)c(=S)n(-c3ccccc3)c2nc(SCCN2CCOCC2)n1-c1ccccc1	3.49	4.28	3.4	3.36	4.09	3.35	3.71	3.5	4.12	3.29										
